Read-outs that look alike come from different tables or passages of the source.
What was measured:
[1] = tested on: osteoarthritic rats (unilateral i.a. MIA injection); experiment: Hind limb grip force (activity-induced pain) 20 days after i.a. MIA injection; format: in vivo, rat
Description: For evaluating the effects of reference analgesic drugs experiments were performed 20 days after induction of OA. Assessment of hind limb grip force was used as a behavioral measure of activity induced pain in adult OA rodents. Measurements of peak hind limb grip force were conducted by recording the maximum compressive force exerted on the hind limb strain gauge setup, in a commercially available grip force measurement system (Columbus Instruments, Columbus, Ohio). A group of age matched naïve animals were added to each experiment and the data obtained from the different dose groups for the compound being tested were compared to the naïve group.
(§1) All experiments have been approved by the Institutional Animal Care and Use Committee (IACUC) at Abbott Laboratories and are in strict accordance with the ethical guidelines laid down by the International Association for the Study of Pain (IASP) (Zimmermann, 1983) for the care and use of laboratory animals. […] Following injection, the animals were allowed to recover from the effects of anesthesia (usually 5-10 mins) before returning to their home cages. […] Animals were euthanized by CO2 inhalation on day 20. The injected knee joints were dissected and immediately fixed in 10% phosphate buffered formalin. The samples were then decalcified in 5% formic acid for 3 days, routinely processed and then embedded in paraffin wax. Frontal histologic sections of the femorotibial joints (6 μm) were prepared, stained with toluidine-blue and examined with a light microscope (Guzman et al., 2003).
(§2) Measurements of peak hind limb grip force were conducted by recording the maximum compressive force exerted on the hind limb strain gauge setup, in a commercially available grip force measurement system (Columbus Instruments, Columbus, Ohio). […] Additional tests were performed 1, 2, 4, 7, 10, 13, 17, 21, 24, and 28 days following the injections.
A group of age matched naïve animals were added to each experiment and the data obtained from the different dose groups for the compound being tested were compared to the naïve group. The vehicle control group for each compound being tested was assigned 0% whereas the naïve group was assigned as being 100% (normal). The % effects for each dose group was then expressed as % return to normalcy compared to the naïve group (=[100÷% increase from vehicle for naive group]×% increase from vehicle for treatment group) (% increase from vehicle=[Treatment CFmax−Vehicle CFmax)/Vehicle CFmax]×100). All experiments evaluating drug effects in this model were conducted in a randomized blinded fashion.

[2] = tested on: naïve rats; experiment: Hind limb grip force in naïve (non-MIA injected) rats
Description: as §2

[3] = tested on: rats; conditions: 28 days after unilateral i.a. injection, 3 mg; baseline 1090.17±52.85 g
Description: as §1, §2

[4] = Rattus norvegicus, po, 480 h; read-out: % effect (% return to normalcy of grip force)
[5] = Rattus norvegicus, po, 480 h; read-out: CI95% of ED50
[6] = Rattus norvegicus, po, 480 h; read-out: ED50, reversal of decreased grip force

## COc1cccc(C2(O)CCCCC2CN(C)C)c1 (stereo not shown) [tramadol]
[1]; Rattus norvegicus, ip, 480 h, read-out: % effect (% return to normalcy of grip force)
  inhibition in vivo at 100 µmol/kg: 79 ± 5%
[1]; Rattus norvegicus, ip, 480 h, read-out: CI95% of ED50
  ED50: 32 to 54 µmol/kg
[1]; Rattus norvegicus, ip, 480 h, read-out: ED50, reversal of decreased grip force
  ED50: 40 µmol/kg

## Cc1ccc(-c2cc(C(F)(F)F)nn2-c2ccc(S(N)(=O)=O)cc2)cc1 [celecoxib]
[1]; 10 μmol/kg p.o. b.i.d. for 12 days beginning 7 days after MIA
  % effect, chronic dosing: 33±3.0%
[1]; 10 μmol/kg p.o., acute
  % effect, acutely dosed group of chronic study: 9±3%
[1]; 30 μmol/kg p.o. b.i.d. for 12 days beginning 7 days after MIA
  % effect, chronic dosing: 67±3%
[1]; 30 μmol/kg p.o., acute
  % effect, acutely dosed group of chronic study: 42±3%
[1]; 100 μmol/kg p.o., acute
  % effect, acute positive control of chronic study: 88±4%
[1]; [4]
  inhibition in vivo at 100 µmol/kg: 87 ± 6%
[1]; [5]
  ED50: 16 to 42 µmol/kg
[1]; [6]
  ED50: 27 µmol/kg

## Nc1nnc(-c2cccc(Cl)c2Cl)c(N)n1 [Lamotrigine, lamotrigine]
[1]; [4]
  inhibition in vivo at 100 µmol/kg: 30 ± 3%

## CN1CC[C@]23c4c5ccc(O)c4O[C@H]2[C@@H](O)C=C[C@H]3[C@H]1C5 [morphine]
[2]; 8 μmol/kg (6 mg/kg) s.c.
  reduction of grip force vs untreated naïve rats: 13±3%
[2]; 13 μmol/kg (10 mg/kg) s.c.
  reduction of grip force vs untreated naïve rats: 52±3%
[1]; Rattus norvegicus, sc, 480 h, read-out: % effect (% return to normalcy of grip force)
  inhibition in vivo at 8 µmol/kg: 34 ± 3%

## NCC1(CC(=O)O)CCCCC1 [gabapentin]
[1]; Rattus norvegicus, po, 480 h, read-out: % effect (% return to normalcy of grip force)
  inhibition in vivo at 500 µmol/kg: 61 ± 8%
[1]; Rattus norvegicus, po, 480 h, read-out: CI95% of ED50
  ED50: 100 to 295 µmol/kg
[1]; Rattus norvegicus, po, 480 h, read-out: ED50, reversal of decreased grip force
  ED50: 159 µmol/kg

## O=C(O)Cc1ccccc1Nc1c(Cl)cccc1Cl [diclofenac]
[1]; [4]
  inhibition in vivo at 100 µmol/kg: 77 ± 5%
[1]; [5]
  ED50: 22 to 38 µmol/kg
[1]; [6]
  ED50: 29 µmol/kg

## CC(=O)Nc1ccc(O)cc1 [acetaminophen]
[1]; [4]
  inhibition in vivo at 300 µmol/kg: 23 ± 11%

## CC(C)Cc1ccc(C(C)C(=O)O)cc1 (stereo not shown) [ibuprofen]
[1]; [4]
  inhibition in vivo at 300 µmol/kg: 29 ± 8%

## sodium monoiodoacetate [MIA]
[3]
  hind limb grip force (GF): 420.96 ± 25.07 g

## COc1ccc2c(c1)c(CC(=O)O)c(C)n2C(=O)c1ccc(Cl)cc1 [indomethacin]
[1]; [4]
  inhibition in vivo at 85 µmol/kg: 44 ± 6%

Reference: patent publication US20080092250A1, “Activity-induced pain in animal model of osteoarthritis” (priority 2006, published 2008)
